# Measurements taken from PubChem BioAssay (NCI).
#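 These data come from cells grown in 96-well plates and exposed to compound for 48 hours at five concentrations. The concentration for 50% growth inhibition is given as GI50. Definition used: TGI = concentration required for complete inhibition of growth.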
# Tested on: SK-MEL-2 melanoma
# Test: inhibition of tumour cell growth, NCI panel, 48 h
SMILES,GI50 [µM],TGI [µM]
CCN1C(=O)N(CC)C2C1NN=c1s/c(=C3\C(=O)N(CCc4ccccc4)c4ccccc43)c(=O)n12 (stereo not given),1.26,12.3

# Tested on: IGROV1 ovarian
# Test: inhibition of tumour cell growth, NCI panel, 48 h
SMILES,GI50 [µM],TGI [µM]
CC(=O)c1c(C(F)(F)F)n([O-])c2ccc(C)cc2[n+]1=O,4.14,> 100
COc1ccc(/C=N/NC(=O)Cn2c(-c3ccc(S(C)(=O)=O)cc3)nc3cc(Cl)ccc32)cc1,3.63,> 50
COc1cc2c(c(OC)c1OC)-c1ccc(SC)c(=O)cc1[C@@H](NC1OC(CO)C(O)C(O)C1O)CC2 (stereo not given in full),0.0635,> 100
CCOc1nc(N)nc(C)c1N=Nc1ccc(Cl)cc1,,> 100
CCN(Cc1ccc(Cl)s1)c1ccc(CO)c(Cl)c1,0.0722,0.337
Nc1ccccc1SCc1csc(-c2ccc(Cl)cc2)n1,,> 100
CSC(=S)N/N=C(\C)c1cccc(C)n1,,18
N#Cc1c(N)[nH]c2ccc(Sc3ccccc3)cc12,,8.36
COc1ccc(OC)c(C2SCC(=O)N2NC(=O)C(O)c2ccccc2)c1 (stereo not given),> 100,> 100
CCN1C(=O)N(CC)C2C1NN=c1s/c(=C\c3ccccc3Br)c(=O)n12 (stereo not given),0.0408,21.8
O=C(O)COc1c(Cl)cc(Cl)c2cccnc12,,> 100
CC(C)(C)c1ccc(C(=O)Nc2sc3c(c2C(N)=O)CCC(=O)C3)cc1,0.684,2.29
O=C(Nc1cccc(Nc2ncc(Br)c(NCCc3cnc[nH]3)n2)c1)N1CCCC1,3.23,28.8
C[C@@H]1O[C@@H](O[C@H]2CC[C@@]3(C)[C@H](CCC4[C@@H]3C(O)C[C@]3(C)[C@@H](c5ccc(=O)oc5)CC[C@]43O)C2)[C@H](O)[C@H](O)[C@H]1O (stereo not given in full),0.0065,0.0237
Cc1ccc(C2=Nc3ccccc3SC(c3cccc([N+](=O)[O-])c3)C2)cc1 (stereo not given),,> 100
CN1CCC(n2cnc(-c3ccc(F)cc3)c2-c2ccnc(N)n2)CC1,6.48,> 20.7
COc1cc(/C=C/[N+](=O)[O-])cc(Br)c1OC,1.84,4.54
CN(CC(N)=O)C(=O)N(CCCl)N=O,,> 100
Cc1ccc(NC(=O)c2ccccc2C(=O)O)cc1C,,> 100
CC(C)=CCC/C(C)=C/CC/C(C)=C/CC/C=C(\C)CC/C=C(\C)CCC(=O)Nc1ccn(C2OC(CO)C(O)C2(F)F)c(=O)n1 (stereo not given),0.142,11.1
COc1ccc(-c2cc(=O)c3c(OC)c(OC)c(OC)c(OC)c3o2)cc1,,> 100
CC(C)(C)CN1CCn2c(nc3c(N)nccc32)S1,11.7,30.3
COc1ccc2c(c1)OC1=C(C(=O)OC1)C2c1cc(OC)c2c(c1)OCO2 (stereo not given),0.0716,> 100
Cc1c(C2=C(c3cn(C)c4ccccc34)C(=O)NC2=O)c2ccccc2n1C,> 10.2,> 25
CC1(C)CCC[C@]2(C)[C@@H](C=O)C(C=O)=CC[C@@H]12,,44.4
CCn1c2ccccc2c2cc(/C=C(/C#N)C(N)=O)ccc21,2.87,> 51.9
COc1ccc(C(=O)N2c3ccccc3Sc3ccccc32)c(OC)c1,0.926,> 100
CN1CCN(CC(O)COc2c(Br)c(Br)c(Br)c3c2OC(C)(C)C3)CC1 (stereo not given),5.36,25.1
CCN1C(=O)N(CC)C2C1NN=c1s/c(=C3\C(=O)N(CCc4ccccc4)c4ccccc43)c(=O)n12 (stereo not given),0.672,

# Tested on: A549 NSCLC
# Test: inhibition of tumour cell growth, NCI panel, 48 h
SMILES,GI50 [µM],TGI [µM]
CC(=O)c1c(C(F)(F)F)n([O-])c2ccc(C)cc2[n+]1=O,4.48,26.6
COc1ccc(/C=N/NC(=O)Cn2c(-c3ccc(S(C)(=O)=O)cc3)nc3cc(Cl)ccc32)cc1,1.97,> 50
COc1cc2c(c(OC)c1OC)-c1ccc(SC)c(=O)cc1[C@@H](NC1OC(CO)C(O)C(O)C1O)CC2 (stereo not given in full),0.0385,> 100
CCOc1nc(N)nc(C)c1N=Nc1ccc(Cl)cc1,,> 100
CCN(Cc1ccc(Cl)s1)c1ccc(CO)c(Cl)c1,1.08,18.7
Nc1ccccc1SCc1csc(-c2ccc(Cl)cc2)n1,,> 100
CSC(=S)N/N=C(\C)c1cccc(C)n1,,29.1
N#Cc1c(N)[nH]c2ccc(Sc3ccccc3)cc12,,12.1
COc1ccc(OC)c(C2SCC(=O)N2NC(=O)C(O)c2ccccc2)c1 (stereo not given),> 100,> 100
CCN1C(=O)N(CC)C2C1NN=c1s/c(=C\c3ccccc3Br)c(=O)n12 (stereo not given),0.0408,> 75.3
O=C(O)COc1c(Cl)cc(Cl)c2cccnc12,,> 100
CC(C)(C)c1ccc(C(=O)Nc2sc3c(c2C(N)=O)CCC(=O)C3)cc1,0.688,3.28
O=C(Nc1cccc(Nc2ncc(Br)c(NCCc3cnc[nH]3)n2)c1)N1CCCC1,7.56,> 67.1
C[C@@H]1O[C@@H](O[C@H]2CC[C@@]3(C)[C@H](CCC4[C@@H]3C(O)C[C@]3(C)[C@@H](c5ccc(=O)oc5)CC[C@]43O)C2)[C@H](O)[C@H](O)[C@H]1O (stereo not given in full),< 0.00325,0.00441
Cc1ccc(C2=Nc3ccccc3SC(c3cccc([N+](=O)[O-])c3)C2)cc1 (stereo not given),,> 100
CN1CCC(n2cnc(-c3ccc(F)cc3)c2-c2ccnc(N)n2)CC1,7.47,> 25
COc1cc(/C=C/[N+](=O)[O-])cc(Br)c1OC,7.84,22
CN(CC(N)=O)C(=O)N(CCCl)N=O,,> 100
Cc1ccc(NC(=O)c2ccccc2C(=O)O)cc1C,,> 100
CC(C)=CCC/C(C)=C/CC/C(C)=C/CC/C=C(\C)CC/C=C(\C)CCC(=O)Nc1ccn(C2OC(CO)C(O)C2(F)F)c(=O)n1 (stereo not given),0.344,28.3
COc1ccc(-c2cc(=O)c3c(OC)c(OC)c(OC)c(OC)c3o2)cc1,,> 100
CC(C)(C)CN1CCn2c(nc3c(N)nccc32)S1,8.09,44.4
COc1ccc2c(c1)OC1=C(C(=O)OC1)C2c1cc(OC)c2c(c1)OCO2 (stereo not given),0.0459,> 100
Cc1c(C2=C(c3cn(C)c4ccccc34)C(=O)NC2=O)c2ccccc2n1C,1.74,> 25
CC1(C)CCC[C@]2(C)[C@@H](C=O)C(C=O)=CC[C@@H]12,,> 100
CCn1c2ccccc2c2cc(/C=C(/C#N)C(N)=O)ccc21,20.3,> 100
COc1ccc(C(=O)N2c3ccccc3Sc3ccccc32)c(OC)c1,0.785,> 100
CN1CCN(CC(O)COc2c(Br)c(Br)c(Br)c3c2OC(C)(C)C3)CC1 (stereo not given),10.6,30.4
CCN1C(=O)N(CC)C2C1NN=c1s/c(=C3\C(=O)N(CCc4ccccc4)c4ccccc43)c(=O)n12 (stereo not given),0.638,> 39.5

# Tested on: OVCAR-3 ovarian
# Test: inhibition of tumour cell growth, NCI panel, 48 h
SMILES,GI50 [µM],TGI [µM]
CC(=O)c1c(C(F)(F)F)n([O-])c2ccc(C)cc2[n+]1=O,7.09,> 48.2
COc1ccc(/C=N/NC(=O)Cn2c(-c3ccc(S(C)(=O)=O)cc3)nc3cc(Cl)ccc32)cc1,0.367,> 50
COc1cc2c(c(OC)c1OC)-c1ccc(SC)c(=O)cc1[C@@H](NC1OC(CO)C(O)C(O)C1O)CC2 (stereo not given in full),0.0244,0.0762
CCOc1nc(N)nc(C)c1N=Nc1ccc(Cl)cc1,,> 100
CCN(Cc1ccc(Cl)s1)c1ccc(CO)c(Cl)c1,0.295,1.21
Nc1ccccc1SCc1csc(-c2ccc(Cl)cc2)n1,,> 67.6
CSC(=S)N/N=C(\C)c1cccc(C)n1,,1.99
N#Cc1c(N)[nH]c2ccc(Sc3ccccc3)cc12,,15.8
COc1ccc(OC)c(C2SCC(=O)N2NC(=O)C(O)c2ccccc2)c1 (stereo not given),> 100,> 100
CCN1C(=O)N(CC)C2C1NN=c1s/c(=C\c3ccccc3Br)c(=O)n12 (stereo not given),0.0266,0.0764
O=C(O)COc1c(Cl)cc(Cl)c2cccnc12,,> 100
CC(C)(C)c1ccc(C(=O)Nc2sc3c(c2C(N)=O)CCC(=O)C3)cc1,0.426,1.52
O=C(Nc1cccc(Nc2ncc(Br)c(NCCc3cnc[nH]3)n2)c1)N1CCCC1,4.62,24.3
C[C@@H]1O[C@@H](O[C@H]2CC[C@@]3(C)[C@H](CCC4[C@@H]3C(O)C[C@]3(C)[C@@H](c5ccc(=O)oc5)CC[C@]43O)C2)[C@H](O)[C@H](O)[C@H]1O (stereo not given in full),0.00431,0.00597
